Experimental findings from patent US11242555B2, “Molecular sensors and uses thereof” (New York University, priority 2018, dated 2022) are described below.

Where a name gives a salt, the structure may show the parent alone.

The test system of the first assay is flexible molecular sensor (DNA). Description: Flexible (tongs-shaped) molecular sensor in solution, groove binders and polypeptides (FRET ratio). It is filed as binding. The note with it: flexible sensor in solution.
Turning to `N=C(N)c1ccc(-c2ccc(-c3ccc(C(=N)N)cc3)o2)cc1` [Fourmadine], the “FRET ratio as a function of compound concentration” value is reported as “concentration-dependent increase of the FRET ratio”.
As to `Cn1cc(NC(=O)c2cc(NC(=O)CN=C(N)N)cn2C)cc1C(=O)NCCC(=N)N` [Netrospin], the “FRET ratio as a function of compound concentration” value is recorded as “concentration-dependent increase of the FRET ratio”.
As to `N=C(N)c1ccc(OCCCCCOc2ccc(C(=N)N)cc2)cc1` [Pentamidine], the “FRET ratio as a function of compound concentration” value was “concentration-dependent increase of the FRET ratio”.
Still for that read-out and setting: in the case of Tri-lysine [Ly-3] it was “increase the FRET ratio”.

Staying with this assay, now noted: flexible sensor, 20 mM MgCl added to solution.
With `COC1C(O)CC(OC2CC(Oc3cc4cc5c(c(O)c4c(O)c3C)C(=O)[C@@H](OC3CC(OC4CC(OC6CC(C)(O)C(OC(C)=O)C(C)O6)C(O)C(C)O4)C(O)C(C)O3)[C@H]([C@H](OC)C(=O)[C@@H](O)[C@@H](C)O)C5)OC(C)C2OC(C)=O)OC1C` (some centres unmarked) [Chromomycin], the “FRET ratio as a function of drug concentration, with Mg” value is “FRET ratio increases as a function of drug concentration”.
Regarding Mitramycin, the “FRET ratio as a function of drug concentration, with Mg” value is listed as “FRET ratio increases as a function of drug concentration”.

The same assay, now with this note: flexible sensor, no Mg.
Take `COC1C(O)CC(OC2CC(Oc3cc4cc5c(c(O)c4c(O)c3C)C(=O)[C@@H](OC3CC(OC4CC(OC6CC(C)(O)C(OC(C)=O)C(C)O6)C(O)C(C)O4)C(O)C(C)O3)[C@H]([C@H](OC)C(=O)[C@@H](O)[C@@H](C)O)C5)OC(C)C2OC(C)=O)OC1C` (some centres unmarked) [Chromomycin]: the “FRET ratio as a function of drug concentration, absence of Mg” value is listed as “no change in the FRET ratio”.
Turning to Mitramycin, the “FRET ratio as a function of drug concentration, absence of Mg” value is “no change in the FRET ratio”.

Another assay deals with double-stranded oligo probe (DNA). As to the kind of experiment: High-throughput screen of a compound library with the linear oligo probe (FRET ratio, 384 well plate). It is filed as binding.
Conditions: not given
How it is done:
A library of compounds was mixed with the oligo probe in 384 well plate format. (A) The fluorescence spectra of the probe were recorded on a plate reader as in FIG. 21 and the FRET ratio (Cy5/Cy3 intensity) was calculated. […] (B) A library consisting of 1600 compounds from FDA and internationally approved drugs was screened to detect potential intercalators that can be drug repositioning targets.
The molecular sensors were used in vitro according to the following: 1) The sensors were diluted in a NaCl solution (e.g., in a 50-100 mM NaCl solution) and 0.2% BSA solution to a concentration of 1 μM. This can be adjusted depending on the sensitivity of the fluorescence measurement device. 2) The fluorescence spectrum was measured using a fluorescence spectrophotometer, a plate reader, or any other ad-hoc means. […] 3) The molecular species was added to be characterized for DNA binding properties or to be tested for intercalating or groove binding ability. The appropriate sensor is used (e.g., a linear or flexible molecular sensor). The fluorescence spectrum was measured again using the same methods and settings. 4) The FRET ratio was compared for both the sensor alone and sensor plus tested molecule. The FRET ratio is calculated by dividing the peak intensity of the acceptor fluorescence by that of the donor fluorescence.
Take `CCCCCCc1ccc(O)cc1O.Nc1c2ccccc2nc2ccccc12` [ACRISORCIN]: the FRET ratio is 0.2919.
Regarding `CCOP(=S)(OCC)Oc1nc(Cl)c(Cl)cc1Cl` [CHLORPYRIFOS], the FRET ratio was 0.5126.
On the same count and under the same terms, the value for `CC(=O)Oc1cccc2c1C(=O)c1c(OC(C)=O)cc(C(=O)O)cc1C2=O` [DIACERIN] was 0.7; that for `CC(=O)Oc1cc2c(cc1OC(C)=O)[C@@H]1c3ccc(OC(C)=O)c(OC(C)=O)c3OC[C@]1(OC(C)=O)C2` [HAEMATOXYLIN PENTAACETATE] was 0.6134.
As to `COc1ccc2c3c([nH]c2c1)C(C)=NCC3` [HARMALINE], the FRET ratio is 0.646.
Take `COc1ccc2c(c1)[nH]c1c(C)nccc12` [HARMINE]: the FRET ratio came out at 0.754.
Turning to `Cc1nccc2c1[nH]c1cc(O)ccc12` [HARMOL HYDROCHLORIDE], the FRET ratio is listed as 0.3867.
Turning to `CC(C)(C#N)O[C@@H]1O[C@H](CO)[C@@H](O)[C@H](O)[C@H]1O` [LINAMARIN], the FRET ratio was found to be 0.4228.
On the same count and under the same terms, the value for `CC[C@@H](CO)NC(=O)[C@@H]1C=C2c3cccc4c3c(cn4C)C[C@H]2N(C)C1` [METHYSERGIDE MALEATE] was 0.8993; that for `COc1ccc2nc3cc(Cl)ccc3c(Nc3cc(CN4CCCC4)c(O)c(CN4CCCC4)c3)c2n1.O=P(O)(O)O.O=P(O)(O)O.O=P(O)(O)O.O=P(O)(O)O` [PYRONARIDINE TETRAPHOSPHATE] was 0.3325.
As to `CC[C@@]1(O)C[C@H](O)c2c(cc3c(c2O)C(=O)c2c(O)ccc(O)c2C3=O)[C@H]1C(=O)OC` [RUTILANTINONE], the FRET ratio is 0.6761.
In the case of `O=c1n(Cl)c(=O)n(Cl)c(=O)n1Cl` [SYMCLOSENE], the FRET ratio was 0.1489.
On to MODALINE SULFATE, for which the FRET ratio was 0.1375.

Still in this assay, the particulars now being: linear oligo probe, 384 well plate, Cy5/Cy3 intensity; library peak ˜1.1, a small ratio indicates intercalation.
With `CC(C)NCC(O)COc1cccc2ccccc12.Cl` (racemic) [PROPRANOLOL HYDROCHLORIDE (+/−)], the FRET ratio was 0.9132.
For the compound `COc1ccc(-c2cc(=O)c3ccccc3o2)cc1` [4′-METHOXYFLAVONE], the FRET ratio amounted to 0.543.
As for `CC(=O)c1ccc2c(c1)N(CCCN(C)C)c1ccccc1S2` [ACEPROMAZINE MALEATE], the FRET ratio amounted to 0.8037.
Take `COc1cc2nc(N(C)CCCNC(=O)C3CCCO3)nc(N)c2cc1OC` (centres unmarked) [ALFUZOSIN HYDROCHLORIDE]: the FRET ratio stood at 0.6784.
Turning to `O=C1c2c(O)cccc2C([C@@H]2O[C@H](CO)[C@@H](O)[C@H](O)[C@H]2O)c2cc(CO)cc(O)c21` (some centres unmarked) [ALOIN], the FRET ratio amounted to 0.7719.
With `N=C(N)NC(=O)c1nc(Cl)c(N)nc1N` [AMILORIDE HYDROCHLORIDE], the FRET ratio is 0.7057.
Same read-out and setting: the value for `Nc1c2ccccc2nc2ccccc12` [AMINACRINE] was 0.2941.
Take `CCN(CC)Cc1cc(Nc2ccnc3cc(Cl)ccc23)ccc1O` [AMODIAQUINE DIHYDROCHLORIDE]: the FRET ratio was determined as 0.8333.
Take `CN1CCc2cccc3c2[C@H]1Cc1ccc(O)c(O)c1-3` [APOMORPHINE HYDROCHLORIDE]: the FRET ratio turned out to be 0.9228.
`NC(CO)C(=O)NNCc1ccc(O)c(O)c1O` (centres unmarked) [BENSERAZIDE HYDROCHLORIDE]: the FRET ratio is 0.7832.
With `COc1ccc2cc3[n+](cc2c1OC)CCc1cc2c(cc1-3)OCO2` [BERBERINE CHLORIDE], the FRET ratio came to 0.4262.
For the compound `Cc1ccc(S(=O)(=O)[N-]Cl)cc1.[Na+]` [CHLORAMINE-T], the FRET ratio amounted to 0.3985.
`COc1cc(OC)c2c(=O)cc(-c3ccccc3)oc2c1` [CHRYSIN DIMETHYL ETHER]: the FRET ratio worked out at 0.8385.
The same measure, in the same setting: the value for `N.N.[Cl][Pt][Cl]` [CISPLATIN] was 0.6996; that for `Cc1cc(N)c2ccccc2[n+]1CCCCCCCCCC[n+]1c(C)cc(N)c2ccccc21` [DEQUALINIUM CHLORIDE] was 0.6126.
Consider `COc1cc2nc(N3CCN(C(=O)C4COc5ccccc5O4)CC3)nc(N)c2cc1OC` (centres unmarked) [DOXAZOSIN MESYLATE], for which the FRET ratio is 0.8089.
`CCOc1cc(C=O)ccc1O` [ETHYL VANILLIN]: the FRET ratio is reported as 0.9212.
For `CO/N=C1\CN(c2nc3c(cc2F)c(=O)c(C(=O)O)cn3C2CC2)CC1CN` (centres unmarked) [GEMIFLOXACIN MESYLATE], the FRET ratio stood at 0.9051.
With `N=C(N)N/N=C/c1c(Cl)cccc1Cl` [GUANABENZ ACETATE], the FRET ratio is recorded as 0.7731.
`N=C(N)N` [GUANIDINE HYDROCHLORIDE]: the FRET ratio is 0.451.
`CCN(CC)CCNc1ccc(CO)c2sc3ccccc3c(=O)c12` [HYCANTHONE]: the FRET ratio was 0.4566.
For `CC[C@H]1CN2CC[C@H]1C[C@@H]2[C@@H](O)c1ccnc2ccc(OC)cc12` [HYDROQUINIDINE], the FRET ratio was found to be 0.7512.
Consider `COc1c2occc2c(OC)c2c(=O)cc(C)oc12` [KHELLIN], for which the FRET ratio is listed as 0.7494.
`COc1c2occc2cc2ccc(=O)oc12` [METHOXSALEN]: the FRET ratio turned out to be 0.9338.
Take `NC(N)=NC(=O)c1nc(Cl)c(N2CCCCCC2)nc1N` [N,N-HEXAMETHYLENEAMILORIDE]: the FRET ratio stood at 0.38.
With `c1ccc2c(CC3=NCCN3)cccc2c1` [NAPHAZOLINE HYDROCHLORIDE], the FRET ratio is 0.8789.
Turning to `CCCCC(CC)COC(=O)C(C#N)=C(c1ccccc1)c1ccccc1` (centres unmarked) [OCTOCRYLENE], the FRET ratio is given as 0.9187.
As to `Cc1c(-c2cnccn2)ssc1=S` [OLTIPRAZ], the FRET ratio is on record as 0.7447.
Regarding `COc1cc2c(cc1OC)-c1cc3ccc(OC)c(OC)c3c[n+]1CC2` [PALMATINE CHLORIDE], the FRET ratio came out at 0.5141.
As for `OCCN1CCN(CCCN2c3ccccc3Sc3ccc(Cl)cc32)CC1` [PERPHENAZINE], the FRET ratio turned out to be 0.9495.
With `CC1=CC(=O)c2c(O)cccc2C1=O` [PLUMBAGIN], the FRET ratio was 0.9364.
Consider `COc1cc2nc(N3CCN(C(=O)c4ccco4)CC3)nc(N)c2cc1OC` [PRAZOSIN HYDROCHLORIDE], for which the FRET ratio was determined as 0.818.
As to `COc1cc(NC(C)CCCN)c2ncccc2c1` (centres unmarked) [PRIMAQUINE PHOSPHATE], the FRET ratio is 0.8618.
On the same count and under the same terms, in the case of `CC(=O)[C@H]1CC[C@H]2[C@@H]3CCC4=CC(=O)CC[C@]4(C)[C@H]3CC[C@]12C` [PROGESTERONE] it was 0.9184; in that of `CCN(CC)CCCC(C)Nc1c2ccc(Cl)cc2nc2ccc(OC)cc12` (centres unmarked) [QUINACRINE HYDROCHLORIDE], 0.2743.
On to `C=C[C@H]1C[N@@]2CC[C@H]1C[C@@H]2[C@@H](O)c1ccnc2ccc(OC)cc12` [QUINIDINE GLUCONATE], for which the FRET ratio worked out at 0.9333.
Take `C[C@@H]1O[C@@H](O[C@H]2[C@H](Oc3cc(O)c4c(=O)cc(-c5ccc(O)cc5)oc4c3)O[C@H](CO)[C@@H](O)[C@@H]2O)[C@H](O)[C@H](O)[C@H]1O` [RHOIFOLIN]: the FRET ratio is recorded as 0.6817.
As for `Nc1c2c(nc3ccccc13)CCCC2` [TACRINE HYDROCHLORIDE], the FRET ratio worked out at 0.6067.
On to `CCN(CC)CCOc1ccc2c(c1)C(=O)c1cc(OCCN(CC)CC)ccc1-2` [TILORONE], for which the FRET ratio came to 0.443.
For the compound `CN1[C@@H]2CC[C@H]1C[C@@H](OC(=O)c1c[nH]c3ccccc13)C2` [TROPISETRON HYDROCHLORIDE], the FRET ratio came out at 0.7228.
In the case of LUPEOL ACETATE, the FRET ratio worked out at 0.38.
